For series [1], the target named is T1, Recombinant human farnesyl transferase (FTase) (Homo sapiens, UniProt P49356).
T1 construct: purchased Crelux (Martinsried, Germany)
As to the kind of experiment: FTase fluorescence assay (farnesylation of dansyl-GCVLS peptide). Type of series: biochemical. Particulars: recombinant human FTase 2.5 nM, Dansyl-GCVLS 85 nM, FPP 30 nM, 30° C., 50 minutes.

Series [2] addresses T2, geranylgeranyl transferase type-1 (GGTase) (Homo sapiens, UniProt P53609).
T2 construct: purchased Crelux (Martinsried, Germany)
As to the kind of experiment: GGTase fluorescence assay (dansyl-GCVLL peptide, GGPP). Type of series: biochemical. As to conditions: GGTase 25 nM, Dansyl-GCVLL 10 μM, GGPP 10 μM, 30° C., 120 minutes. The source says: T24/83 cell line was purchased from the European Collection of Authenticated Cell Cultures (Salisbury, UK). Recombinant human farnesyl transferase (FTase) and geranylgeranyl transferase type-1 (GGTase) were obtained from Crelux (Martinsried, Germany). Dansyl labelled GCVLS peptide was purchased from Bachem (Torrance, CA), and Dansyl labelled GCVLL peptide was purchased from Bio Synthesis (Lewisville, TX). Farnesyl Pyrophosphate (FPP) and Geranylgeranyl pyrophosphate (GGPP) were purchased from Cayman (Ann Arbor, MI).
Geranylgeranyl transferase (GGTase) is a closely related enzyme to farnesyl transferase (FTase). The two enzymes share a common regulatory chain but have distinct individual enzymatic domains. GGTase catalyses the addition of an alternative prenylated side chain to some of the same proteins that may also be farnesylated. Thus, selective inhibitory activity against FTase relative to GGTase is a critical characteristic for FTase inhibitors.
The IC50 value of the compounds disclosed herein as inhibitors of Ftase and/or GGTase, was determined by measuring the concentration (provided in nM) necessary to achieve inhibition of enzyme activity by 50% (IC50). […] Compounds having a low IC50 value against FTase, for example an IC50 (FTase)<100 nM, such as an IC50 (FTase)<10 nM, are preferred. Compounds having a low IC50 value against FTase and a high IC50 value against GGTase, for example an IC50 (FTase)<100 nM, such as an IC50 (FTase)<10 nM, and an IC50 (GGTase)>100 nM, are potent and selective inhibitors of FTase, and are particularly preferred.
The inhibition activities of the compounds disclosed herein against Ftase and GGTase were measured in the respective fluorescence assays as follows:
For the GGTase assay, GGTase (25 nM), Dansyl labelled GCVLL peptide (10 μM), GGPP (10 μM) and inhibitor were mixed in assay buffer (50 mM Tris, pH 7.5, 10 mM magnesium chloride, 10 μM zinc chloride, 0.08% CHAPS, 5 mM dithiothreitol) and incubated in a total volume of 20 μL at 30° C. for 120 minutes.
For both the FTase assay and GGTase assay, fluorescence intensity was detected (excitation at 340 nm and emission at 486 nm) using EnVision (PerkinElmer; Waltham, MA), IC50 determinations were performed using a sigmoidal dose-response model with Xlfit software (IDBS, Inc.; Boston, MA), and tipifarnib was used as a positive control. All the assay plates for each assay passed the QC criteria (S/B, Z factor).

Another series has as its system T24/83 cells. As to the kind of experiment: T24/83 cell proliferation assay (CellTiter-Glo). Type of series: cell-based. As to conditions: Homo sapiens, 96 h, 4 days. The essentials: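 HRAS-mutant T24/83 bladder carcinoma cells seeded at 100 cells/well and grown with inhibitor for 4 days at 37 °C; 0.7% DMSO negative control, 100 μM tipifarnib positive control. Viability by CellTiter-Glo luminescence.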
For orientation: Cellular ATP, detected with luciferase, serves as a proxy for viable cell number.

Series [3] in a line: Metabolic stability in human liver microsomes. Type of series: in vitro ADME. As to conditions: human liver microsomes 0.5 mg protein/mL, test compound 1 μM, 37° C.; read-out: T1/2 in HLM. As to the method: (§1) The metabolic stability of the compounds disclosed herein was determined by measuring half-life (T1/2) of the compounds in the presence of mouse liver microsomes (MLM) or human liver microsomes (BILM).
(§2) Intermediate solution: 5 μL of compound and control stock solution (10 mM in dimethyl sulfoxide (DMSO)) were diluted with 495 μL of acetonitrile (ACN) (intermediate solution concentration: 100 μM, 99% ACN).
(§3) Working solution: 50 μL of compound and control intermediate solution (100 μM) were diluted with 450 μL of 100 mM potassium phosphate buffer (working solution concentration: 10 μM, 9.9% ACN).
(§4) Controls used in this assay: Testosterone, Diclofenac, and Propafenone.
(§5) Preparation Procedure: The appropriate amount of NADPH powder was weighed and diluted into a 10 mM MgCl2 solution (working solution concentration: 10 unit/mL; final concentration in reaction system: 1 unit/mL).
(§6) The appropriate concentrations of microsome working solutions were prepared in 100 mM potassium phosphate buffer.
(§7) Cold (4° C.) acetonitrile (CAN) containing 200 ng/mL tolbutamide and 200 ng/mL labetalol as internal standards (IS) was used as the stop solution.
(§8) Using an Apricot automation workstation, 10 μL/well of compound working solution were added to all 96-well reaction plates except the blank (T0, T5, T10, T20, T30, T60, and NCF60).
(§9) An Apricot automation workstation was used to add 80 μL/well of microsome solution to all reaction plates (Blank, T0, T5, T10, T20, T30, T60, and NCF60).
(§10) All reaction plates containing mixtures of compound and microsomes were pre-incubated at 37° C. for 10 minutes.
(§11) An Apricot automation workstation was used to add 10 μL/well of 100 mM potassium phosphate buffer to reaction plate NCF60.
(§12) Reaction plate NCF60 was incubated at 37° C. for 60 minutes.
(§13) After pre-incubation, an Apricot automation workstation was used to add 10 μL/well of NADPH regenerating system to every reaction plate except NCF60 (Blank, T0, T5, T10, T20, T30, and T60) to start the reaction. Final concentration of each component in incubation medium: Microsome (0.5 mg protein/mL); Test Compound (1 μM); Control Compound (1 μM); Acetonitrile (0.99%); DMSO (0.01%).
(§14) The reaction plates were incubated at 37° C. for 0 minute (T0, stop solution was added prior to microsome and NADPH solutions), 5 minutes (T5), 10 minutes (T10), 20 minutes (T20), 30 minutes (T30), 60 minutes (T60).
(§15) An Apricot automation workstation was used to add 300 μL/well of stop solution to each reaction plate at its appropriate end time point to terminate the reaction.
(§16) Each plate was sealed and shaken for 10 minutes.
(§17) After shaking, each plate was centrifuged at 4000 rpm and 4° C. for 20 minutes.
(§18) During centrifugation, an Apricot automation workstation was used to add 300 µL/well of HPLC grade water to eight new 96-well plates.
(§19) After centrifugation, an Apricot automation workstation was used to transfer 100 μL of supernatant from each reaction plate to its corresponding bioanaylsis plate.
(§20) Each bioanalysis plate was sealed and shaken for 10 minutes prior to LC-MS/MS analysis.
(§21) The equation of first order kinetics was used to calculate T1/2 and CLint(mic) (μL/min/mg).
(In general: Liver microsomes are a subcellular fraction often used to study metabolism.)

A short description of series [4]: Metabolic stability in mouse liver microsomes. Type of series: in vitro ADME. As to conditions: CD-1 mouse liver microsomes 0.5 mg protein/mL, test compound 1 μM, 37° C.; read-out: T1/2 in MLM. The protocol: as §1, §2, §3, §4, §5, §6, §7, §8, §9, §10, §11, §12, §13, §14, §15, §16, §17, §18, §19, §20, §21

Some results are limits rather than exact numbers.

One may read the IC50 as the concentration needed to halve the response being measured. Take `Cn1cncc1[C@@]1(N)c2ccc(Cl)c(c2)OCc2cccc(c2)-c2cc(=O)n(C)c3ccc1cc23` [(S)-15, (S)-3-amino-4^4-chloro-2^1-methyl-3-(1-methyl-1H-imidazol-5-yl)-2^1,2^2-dihydro-5-oxa-2(4,6)-quinolina-1,4(1,3)-dibenzenacyclohexaphan-2^2-one]: the figures for the IC50 (in series [1]; in series [2]; with T24/83 cells) were at most 0.01 µM, over 1 µM and 0.05 to 0.5 µM, respectively. For the same molecule, the half-life at 1 μM in series [3] is 30 to 100 min; in series [4], under 5 min.

On to `Cn1cncc1[C@@]1(O)c2ccc(C#N)c(c2)OCc2cccc(c2)-c2cc(=O)n(C)c3ccc1cc23` [(S)-18, (S)-3-hydroxy-2^1-methyl-3-(1-methyl-1H-imidazol-5-yl)-2^2-oxo-2^1,2^2-dihydro-5-oxa-2(4,6)-quinolina-1,4(1,3)-dibenzenacyclohexaphane-4^4-carbonitrile], for which the IC50 in series [1] was at most 0.01 µM; in series [2] it was over 1 µM; in the series with T24/83 cells, at most 0.05 µM. Moreover, the half-life at 1 μM in series [3] lay within 30 to 100 min; in series [4], 5 to 15 min.

For `[2H]C([2H])([2H])n1c(=O)cc2c3cc(ccc31)[C@@](N)(c1cncn1C)c1ccc(C#N)c(c1)OCc1cccc-2c1` [(S)-20, (S)-3-amino-2^1-(methyl-d3)-3-(1-methyl-1H-imidazol-5-yl)-2^2-oxo-2^1,2^2-dihydro-5-oxa-2(4,6)-quinolina-1,4(1,3)-dibenzenacyclohexaphane-4^4-carbonitrile], the figures for the IC50 (in series [1]; in series [2]; with T24/83 cells) were at most 0.01 µM, over 1 µM and at most 0.05 µM, respectively. In addition, the results for the half-life at 1 μM in series [3] and in series [4] were over 100 min and over 15 min, respectively.

For `Cn1cncc1[C@@]1(N)c2ccc(Cl)c(c2)OCCc2cccc(c2)-c2cc(=O)n(C)c3ccc1cc23` [(S)-27, (S)-3-amino-4^4-chloro-2^1-methyl-3-(1-methyl-1H-imidazol-5-yl)-2^1,2^2-dihydro-5-oxa-2(4,6)-quinolina-1,4(1,3)-dibenzenacycloheptaphan-2^2-one], the IC50 in series [1] is at most 0.01 µM; in series [2], over 1 µM; in the series with T24/83 cells it was at most 0.05 µM. Further, the half-life at 1 μM in series [3] was under 30 min; in series [4], under 5 min.

Turning to `[2H]C([2H])([2H])n1c(=O)cc2c3cc(ccc31)[C@@](N)(c1nncn1C)c1ccc(Cl)c(c1)OCCc1cccc-2c1` [(S)-34, (S)-3-amino-4^4-chloro-2^1-(methyl-d3)-3-(4-methyl-4H-1,2,4-triazol-3-yl)-2^1,2^2-dihydro-5-oxa-2(4,6)-quinolina-1,4(1,3)-dibenzenacycloheptaphan-2^2-one], the IC50 in series [1] is at most 0.01 µM; in series [2] it was over 1 µM; with T24/83 cells, 0.05 to 0.5 µM. Besides, the half-life at 1 μM in series [3] was under 30 min; in series [4], 5 to 15 min.

Consider `Cn1cncc1[C@@]1(N)c2ccc(C#N)c(c2)OCCc2cccc(c2)-c2cc(=O)n(C)c3ccc1cc23` [(S)-37, (S)-3-amino-2^1-methyl-3-(1-methyl-1H-imidazol-5-yl)-2^2-oxo-2^1,2^2-dihydro-5-oxa-2(4,6)-quinolina-1,4(1,3)-dibenzenacycloheptaphane-4^4-carbonitrile], for which the IC50 in series [1] was at most 0.01 µM; in series [2], over 1 µM; in the series with T24/83 cells it was at most 0.05 µM. Besides, the half-life at 1 μM in series [3] is under 30 min; in series [4], under 5 min.

For the molecule `Cn1cncc1[C@@]1(N)c2ccc(Cl)c(c2)COc2cccc(c2)-c2cc(=O)n(C)c3ccc1cc23` [(S)-46, (S)-3-amino-4^4-chloro-2^1-methyl-3-(1-methyl-1H-imidazol-5-yl)-2^1,2^2-dihydro-6-oxa-2(4,6)-quinolina-1,4(1,3)-dibenzenacyclohexaphan-2^2-one], the results for the 50% inhibitory concentration (IC50) (in series [1]; in series [2]; with T24/83 cells) were at most 0.01 µM, over 1 µM and at most 0.05 µM, respectively. Further, the half-life at 1 μM in series [3] was over 100 min; in series [4], 5 to 15 min.

With `[2H]C([2H])([2H])n1c(=O)cc2c3cc(ccc31)[C@@](N)(c1cncn1C)c1ccc(Cl)c(c1)COc1cccc-2c1` [(S)-47, (S)-3-amino-4^4-chloro-2^1-(methyl-d3)-3-(1-methyl-1H-imidazol-5-yl)-2^1,2^2-dihydro-6-oxa-2(4,6)-quinolina-1,4(1,3)-dibenzenacyclohexaphan-2^2-one], the IC50 in series [1] was at most 0.01 µM; in series [2], over 1 µM; with T24/83 cells, at most 0.05 µM. Moreover, the half-life at 1 μM is over 100 min in series [3] and 5 to 15 min in series [4].

Turning to `Cn1cnnc1[C@@]1(N)c2ccc(Cl)c(c2)COc2cccc(c2)-c2cc(=O)n(C)c3ccc1cc23` [(S)-51, (S)-3-amino-4^4-chloro-2^1-methyl-3-(4-methyl-4H-1,2,4-triazol-3-yl)-2^1,2^2-dihydro-6-oxa-2(4,6)-quinolina-1,4(1,3)-dibenzenacyclohexaphan-2^2-one], the figures for the IC50 (in series [1]; in series [2]; in the series with T24/83 cells) were at most 0.01 µM, over 1 µM and 0.05 to 0.5 µM, respectively. The results for the half-life at 1 μM in series [3] and in series [4] were over 100 min and over 15 min, respectively.

For the molecule `[2H]C([2H])([2H])n1c(=O)cc2c3cc(ccc31)[C@@](N)(c1cncn1C)c1ccc(C#N)c(c1)COc1cccc-2c1` [(S)-56, (S)-3-amino-2^1-(methyl-d3)-3-(1-methyl-1H-imidazol-5-yl)-2^2-oxo-2^1,2^2-dihydro-6-oxa-2(4,6)-quinolina-1,4(1,3)-dibenzenacyclohexaphane-4^4-carbonitrile], the IC50 in series [1] was at most 0.01 µM; in series [2] it was over 1 µM; in the series with T24/83 cells, at most 0.05 µM. In addition, the half-life at 1 μM is over 100 min in series [3] and over 15 min in series [4].
